Data on six compounds can be found in ChEMBL document CHEMBL1201862, “PubChem BioAssay data set” (2004).

Each structure is given as a SMILES string.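 Interpolation was linear, between the two tested concentrations surrounding the appropriate level; five concentrations were tested over 48 hours in 96-well plates. At the GI50, growth is halved.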 Calls of active or inactive are those of the source. Cut-off read from the data, not from the text of the source: active = GI50 up to about 1.1 µM and inactive = higher.

Some test systems named below: Malme-3M; OVCAR-3; OVCAR-8; LOX IMVI; 786-0; SW-620; SNB-75; ACHN; M14; UACC-257; HOP-62; HCT-116; EKVX; MOLT-4; UACC-62; NCI-H460; SN12C; DMS-114; T47D; MDA-MB-231.
What all share (test): NCI tumour cell line growth inhibition, 48 h

On to `Cc1cccc2c1c1ccc3c(c1n2C)C(=O)C=CC3=O`, for which the GI50 in the experiment on Malme-3M is 4.33 µM (inactive); with OVCAR-3, 2.05 µM (inactive); with OVCAR-8, 5.37 µM (inactive); in the experiment with LOX IMVI, 4.94 µM (inactive); in the experiment on 786-0, 1.94 µM (inactive); with SW-620, 2.03 µM (inactive). For the same compound, the GI50 is 19.5 µM (inactive) with SNB-75; 7.73 µM (inactive) in the experiment with ACHN; 6.22 µM (inactive) in the experiment on M14; 11.4 µM (inactive) with UACC-257; 19 µM (inactive) with HOP-62; 5.86 µM (inactive) in the experiment with HCT-116. The GI50 in the experiment with EKVX was 18.9 µM (inactive); in the experiment with MOLT-4, 0.536 µM (active); in the experiment with UACC-62, 13.2 µM (inactive); in the experiment with NCI-H460, 17.3 µM (inactive); in the experiment on SN12C, 6.17 µM (inactive); in the experiment on DMS-114 it was 6.35 µM (inactive).
On to `C[C@]12CC[C@H](O)CC1=CC[C@@H]1C2CC[C@]2(C)C(=O)NC(=O)CC12` (stereo not given in full), for which the GI50 was 92.5 µM (inactive) in the experiment on Malme-3M; > 100 µM (inactive) in the experiment with OVCAR-3; 45.6 µM (inactive) with OVCAR-8; 65.9 µM (inactive) with LOX IMVI; 55.5 µM (inactive) with 786-0; 47.8 µM (inactive) in the experiment on SW-620. Further, the GI50 with SNB-75 was > 100 µM (inactive); with ACHN, > 100 µM (inactive); in the experiment on M14, > 100 µM (inactive); in the experiment with UACC-257 it was > 100 µM (inactive); with HOP-62, > 100 µM (inactive); with HCT-116 it was 53.7 µM (inactive). For the same compound, the GI50 in the experiment with EKVX was > 100 µM (inactive); with MOLT-4 it was 30.6 µM (inactive); in the experiment with UACC-62, > 100 µM (inactive); in the experiment on NCI-H460 it was 48.6 µM (inactive); with SN12C it was 69 µM (inactive); in the experiment with DMS-114, > 100 µM (inactive).
For `C=C(c1ccccc1)[C@@]1(O)CCCC[C@H]1NC(c1ccccc1)c1ccccc1`, the GI50 in the experiment with Malme-3M was 16.1 µM (inactive); with OVCAR-3, 12.1 µM (inactive); in the experiment with OVCAR-8 it was 13.8 µM (inactive); in the experiment on LOX IMVI, 9.84 µM (inactive); in the experiment with 786-0, 12.7 µM (inactive); with SW-620, 14.4 µM (inactive). The GI50 in the experiment with SNB-75 was 28.2 µM (inactive); in the experiment on ACHN, 11.7 µM (inactive); in the experiment on M14, 14 µM (inactive); in the experiment on UACC-257, 10.5 µM (inactive); in the experiment with HOP-62, 15.1 µM (inactive); in the experiment with HCT-116 it was 7.93 µM (inactive). Besides, the GI50 is 15.3 µM (inactive) with EKVX; 2.73 µM (inactive) with MOLT-4; 13.1 µM (inactive) in the experiment on UACC-62; 13 µM (inactive) with NCI-H460; 14 µM (inactive) with SN12C; 9.64 µM (inactive) with DMS-114.
`CC(=O)C(CN(C(C)C)C(C)C)C(c1ccccc1)c1c(O)c2ccccc2oc1=O` (stereo not given): the GI50 with Malme-3M, in the experiment on OVCAR-3, in the experiment with OVCAR-8, with LOX IMVI, in the experiment with 786-0 and in the experiment with SW-620 was > 100 µM (inactive) in each case. Moreover, the GI50 was 16.7 µM (inactive) in the experiment on SNB-75; > 100 µM (inactive) in the experiment on ACHN; > 100 µM (inactive) in the experiment with M14; > 100 µM (inactive) with UACC-257; > 100 µM (inactive) in the experiment on HOP-62; > 100 µM (inactive) with HCT-116. Further, the GI50 with EKVX, in the experiment on MOLT-4, with UACC-62, in the experiment with NCI-H460, in the experiment with SN12C and in the experiment with DMS-114 was > 100 µM (inactive) in each case.
`COc1cc(/C=C2\[C@@H]3NC(Cc4c(OC)c(C)c(OC)c(OC)c43)C(=O)N2Cc2ccccc2)c(OC)c(C)c1OC`: the GI50 is 28.2 µM (inactive) in the experiment with Malme-3M; 31.7 µM (inactive) with OVCAR-3; 36.1 µM (inactive) with OVCAR-8; 42.7 µM (inactive) with LOX IMVI; 48.6 µM (inactive) with 786-0; 68.9 µM (inactive) with SW-620. In addition, the GI50 was 27.7 µM (inactive) with SNB-75; 44 µM (inactive) with ACHN; 31.3 µM (inactive) with M14; 34.7 µM (inactive) in the experiment with UACC-257; 54.1 µM (inactive) in the experiment on HOP-62; 37.5 µM (inactive) in the experiment with HCT-116. The GI50 is 29.4 µM (inactive) with EKVX; 27.5 µM (inactive) in the experiment with MOLT-4; 47.5 µM (inactive) in the experiment on UACC-62; 21.6 µM (inactive) in the experiment on NCI-H460; 40.3 µM (inactive) in the experiment with SN12C; 29.8 µM (inactive) in the experiment with DMS-114.
For the compound `COc1c(CC=C(C)C)c(O)c(C(CC(C)C)c2c(O)c(CC=C(C)C)c(O)c(C(C)=O)c2O)c(O)c1C(C)=O` (stereo not given), the GI50 in the experiment on Malme-3M was 0.638 µM (active); in the experiment with OVCAR-3, 1.15 µM (inactive); in the experiment on OVCAR-8, 0.385 µM (active); in the experiment with LOX IMVI it was 1.57 µM (inactive); in the experiment on 786-0 it was 1.63 µM (inactive); in the experiment with SW-620 it was 0.48 µM (active). Further, the GI50 in the experiment with SNB-75 was 1.69 µM (inactive); in the experiment on ACHN, 1.1 µM (active); in the experiment with M14, 1.43 µM (inactive); in the experiment with T47D, 0.385 µM (active); in the experiment with UACC-257, 1.45 µM (inactive); in the experiment on HOP-62, 1.4 µM (inactive). Also, the GI50 in the experiment with HCT-116 is 0.325 µM (active); in the experiment on EKVX, 1.04 µM (active); with MOLT-4, 0.644 µM (active); in the experiment on UACC-62 it was 0.527 µM (active); in the experiment on NCI-H460, 0.589 µM (active); with SN12C it was 0.469 µM (active). The GI50 is 0.19 µM (active) in the experiment with DMS-114 and 1.64 µM (inactive) in the experiment on MDA-MB-231.
